# Tests used:
# [1] = Solubility of strontium imidazolate adducts in cyclooctane
# Procedure: Solubility was determined by taking a weighed amount of solvent at room temperature, incrementally adding metal complex with mixing until not more could be dissolved then reweighing the resultant solution to permit the weight percentage of metal complex dissolved to be calculated. A fixed volume of the solution was then weighed. […] The moles of metal complex is then divided by the volume of weighed solution in liters to yield the molarity of the solution.
# [2] = Thermogravimetric analysis (TGA)/differential scanning calorimetry (DSC); type: physicochemical
# Procedure: Thermogravimetric analysis (TGA) of the complexes listed in Tables 1 and 2 were conducted whereby samples were suspended in a microbalance pan under a steady stream of nitrogen while being heated under a constant rate. Weight loss is measured as a function of temperature/time while a differential scanning calorimeter monitors exotherms (decomposition) or endotherms (phase change/melting or evaporative cooling).
# [3] = Solubility of strontium imidazolate adducts in mesitylene; type: physicochemical
# Description: A fixed volume of the solution was then weighed. […] […].
# [4] = saturated solution in cyclooctane, room temperature
# [5] = saturated solution in mesitylene, room temperature
Compound,Molarity of strontium complex [1] [M],Wt % of strontium complex [1] [Wt %],times more soluble in cyclooctane than parent complex [1],TGA residual mass [2] [%],Wt % of strontium complex [3] [Wt %],times more soluble in mesitylene than parent complex [3],"Molarity of strontium complex [1, 4] [M]","Wt % of strontium complex [1, 4] [Wt %]","Molarity of strontium complex [3, 5] [M]","Wt % of strontium complex [3, 5] [Wt %]",Molarity of strontium complex [3] [M],"temperature at which weight loss associated with loss of tetrahydrofuran significantly begins ([2]; TGA under nitrogen stream, constant heating rate, FIG. 7) [°C]"
"C1=CCOC1.CC(C)(C)c1nc(C(C)(C)C)c(C(C)(C)C)[n-]1.CC(C)(C)c1nc(C(C)(C)C)c(C(C)(C)C)[n-]1.[Sr+2] [Strontium bis(2,4,5-tri-tert-butylimidazolate)(2,5-dihydrofuran)]",0.37,24,11-12 times,8.09,38,9-13 times,,,,,,
"CC(C)(C)c1nc(C(C)(C)C)c(C(C)(C)C)[n-]1.CC(C)(C)c1nc(C(C)(C)C)c(C(C)(C)C)[n-]1.COC(C)OC.[Sr+2] [Strontium bis(2,4,5-tri-tert-butylimidazolate)(1,1-dimethoxyethane)]",,,,,,,0.03,2.1,0.13,9.0,,
"CC(C)(C)c1nc(C(C)(C)C)c(C(C)(C)C)[n-]1.CC(C)(C)c1nc(C(C)(C)C)c(C(C)(C)C)[n-]1.COCC(C)OC.[Sr+2] [Strontium bis(2,4,5-tri-tert-butylimidazolate)(1,2-dimethoxypropane)]",0.04,2.8,,,7.3,,,,,,0.093,
"C1CCOC1.CC(C)(C)c1nc(C(C)(C)C)c(C(C)(C)C)[n-]1.CC(C)(C)c1nc(C(C)(C)C)c(C(C)(C)C)[n-]1.[Sr+2] [Strontium bis(2,4,5-tri-tert-butylimidazolatee)(tetrahydrofuran)]",,,,,,,0.35,23.6,0.6,28.2,,≥ 100
"CC(C)(C)c1nc(C(C)(C)C)c(C(C)(C)C)[n-]1.CC(C)(C)c1nc(C(C)(C)C)c(C(C)(C)C)[n-]1.CN(C)CCN(C)C.[Sr+2] [Strontium bis(2,4,5-tri-tert-butylimidazolate)(tetramethylethlenediamine)]",,,,,,,0.02,1.8,0.041,3.3,,
"CC(C)(C)c1nc(C(C)(C)C)c(C(C)(C)C)[n-]1.CC(C)(C)c1nc(C(C)(C)C)c(C(C)(C)C)[n-]1.CC1CCOC1.[Sr+2] [Strontium bis(2,4,5-tri-tert-butylimidazolate)(3-methyltetrahydrofuran)]",0.05,3.5,,,28.8,9-13 times,,,,,0.44,

# Source: patent publication US20130260025A1, “Group 2 Imidazolate Formulations for Direct Liquid Injection” (AIR PRODUCTS AND CHEMICALS, INC., priority 2012, published 2013)
